Data taken from US20120245137A1 (Zalicus Pharmaceuticals Ltd., priority 2009, published 2012).
Read-outs that look alike come from different tables or passages of the source.

Assays:
Format in all cases: cell-based
[1] = target: CAv1.2 (Homo sapiens, UniProt Q13936); assay: FLIPR data, CAv1.2 channel blocking (Table 6); conditions: for CAv1.2 IC50 Ratio closed/inact.: ratio closed/inactivated IC50
[2] = target: T-type calcium channel (Homo sapiens, UniProt O95180); assay: T-type channel blocking, FLIPR data (Table 6); conditions: for CAv3.2 IC50 Ratio closed/inact.: CAv3.2, ratio closed/inactivated IC50
Chain of T-type calcium channel (Homo sapiens, UniProt O95180) (O95180 whole entry): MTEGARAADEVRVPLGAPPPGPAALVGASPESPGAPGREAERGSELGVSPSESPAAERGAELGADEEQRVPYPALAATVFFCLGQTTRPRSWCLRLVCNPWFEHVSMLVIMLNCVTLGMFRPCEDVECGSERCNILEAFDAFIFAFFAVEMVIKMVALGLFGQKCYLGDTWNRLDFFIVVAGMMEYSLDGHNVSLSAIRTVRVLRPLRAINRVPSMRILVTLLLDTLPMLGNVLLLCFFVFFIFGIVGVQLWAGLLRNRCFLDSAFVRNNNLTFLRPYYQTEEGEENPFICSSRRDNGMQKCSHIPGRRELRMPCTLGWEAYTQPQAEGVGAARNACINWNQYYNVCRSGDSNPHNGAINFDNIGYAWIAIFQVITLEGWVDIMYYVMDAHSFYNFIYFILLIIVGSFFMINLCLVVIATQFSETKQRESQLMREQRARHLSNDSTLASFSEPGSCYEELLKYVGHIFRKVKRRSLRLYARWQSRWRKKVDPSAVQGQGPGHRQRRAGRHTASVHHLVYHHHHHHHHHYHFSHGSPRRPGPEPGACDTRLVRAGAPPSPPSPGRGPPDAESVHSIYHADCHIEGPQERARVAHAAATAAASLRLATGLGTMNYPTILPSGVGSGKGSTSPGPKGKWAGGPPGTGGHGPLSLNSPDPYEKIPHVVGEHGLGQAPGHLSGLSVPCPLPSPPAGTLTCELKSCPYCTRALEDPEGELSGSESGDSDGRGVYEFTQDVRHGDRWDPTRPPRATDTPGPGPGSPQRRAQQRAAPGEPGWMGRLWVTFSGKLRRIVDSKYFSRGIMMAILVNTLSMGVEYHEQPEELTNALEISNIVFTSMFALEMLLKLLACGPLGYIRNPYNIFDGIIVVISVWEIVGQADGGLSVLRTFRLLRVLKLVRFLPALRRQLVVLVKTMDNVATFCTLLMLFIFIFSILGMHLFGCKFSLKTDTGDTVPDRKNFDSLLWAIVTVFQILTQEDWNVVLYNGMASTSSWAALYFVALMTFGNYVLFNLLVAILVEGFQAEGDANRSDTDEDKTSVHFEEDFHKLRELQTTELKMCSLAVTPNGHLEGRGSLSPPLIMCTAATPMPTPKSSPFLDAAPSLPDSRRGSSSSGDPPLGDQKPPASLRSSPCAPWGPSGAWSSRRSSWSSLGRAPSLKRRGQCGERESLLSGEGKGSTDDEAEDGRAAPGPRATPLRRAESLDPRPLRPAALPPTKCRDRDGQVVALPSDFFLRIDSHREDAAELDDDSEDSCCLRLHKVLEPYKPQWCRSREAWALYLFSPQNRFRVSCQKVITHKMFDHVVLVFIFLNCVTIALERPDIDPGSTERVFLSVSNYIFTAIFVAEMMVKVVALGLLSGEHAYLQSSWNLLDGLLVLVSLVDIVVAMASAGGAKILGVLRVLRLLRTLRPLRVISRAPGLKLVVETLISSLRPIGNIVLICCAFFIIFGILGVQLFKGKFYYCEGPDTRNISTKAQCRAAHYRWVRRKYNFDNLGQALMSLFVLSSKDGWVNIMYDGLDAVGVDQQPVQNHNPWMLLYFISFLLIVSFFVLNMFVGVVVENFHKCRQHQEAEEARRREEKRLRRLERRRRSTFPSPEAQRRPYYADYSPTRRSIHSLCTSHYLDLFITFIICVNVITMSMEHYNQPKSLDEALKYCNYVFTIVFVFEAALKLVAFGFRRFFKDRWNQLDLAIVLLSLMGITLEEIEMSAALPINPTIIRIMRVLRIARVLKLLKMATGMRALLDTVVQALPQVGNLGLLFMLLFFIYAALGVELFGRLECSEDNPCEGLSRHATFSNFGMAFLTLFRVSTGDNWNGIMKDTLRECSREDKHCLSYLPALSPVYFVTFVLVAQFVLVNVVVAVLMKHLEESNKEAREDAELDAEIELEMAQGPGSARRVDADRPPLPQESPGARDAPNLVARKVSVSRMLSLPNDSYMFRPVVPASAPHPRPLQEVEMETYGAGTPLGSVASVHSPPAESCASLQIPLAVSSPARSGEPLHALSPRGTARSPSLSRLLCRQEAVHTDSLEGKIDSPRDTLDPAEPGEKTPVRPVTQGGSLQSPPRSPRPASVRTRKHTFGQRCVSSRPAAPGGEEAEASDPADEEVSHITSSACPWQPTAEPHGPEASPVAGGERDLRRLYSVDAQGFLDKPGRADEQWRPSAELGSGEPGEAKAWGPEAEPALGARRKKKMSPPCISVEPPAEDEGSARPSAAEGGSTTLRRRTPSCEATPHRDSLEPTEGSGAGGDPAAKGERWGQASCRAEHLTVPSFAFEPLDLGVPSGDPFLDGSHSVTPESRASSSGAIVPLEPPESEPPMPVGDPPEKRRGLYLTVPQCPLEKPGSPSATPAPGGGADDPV
Description: (§1) Another method, high-throughput spectrophotometric assay, utilizes loading of the cell lines with a fluorescent dye sensitive to intracellular calcium concentration and subsequent examination of the effects of compounds on the ability of depolarization by potassium chloride or other means to alter intracellular calcium levels.

[3] = target: T-type calcium channel (Homo sapiens, UniProt O43497); assay: T-type channel blocking, FLIPR data (Table 6); conditions: CAv3.1
Chain of T-type calcium channel (Homo sapiens, UniProt O43497) (O43497 whole entry): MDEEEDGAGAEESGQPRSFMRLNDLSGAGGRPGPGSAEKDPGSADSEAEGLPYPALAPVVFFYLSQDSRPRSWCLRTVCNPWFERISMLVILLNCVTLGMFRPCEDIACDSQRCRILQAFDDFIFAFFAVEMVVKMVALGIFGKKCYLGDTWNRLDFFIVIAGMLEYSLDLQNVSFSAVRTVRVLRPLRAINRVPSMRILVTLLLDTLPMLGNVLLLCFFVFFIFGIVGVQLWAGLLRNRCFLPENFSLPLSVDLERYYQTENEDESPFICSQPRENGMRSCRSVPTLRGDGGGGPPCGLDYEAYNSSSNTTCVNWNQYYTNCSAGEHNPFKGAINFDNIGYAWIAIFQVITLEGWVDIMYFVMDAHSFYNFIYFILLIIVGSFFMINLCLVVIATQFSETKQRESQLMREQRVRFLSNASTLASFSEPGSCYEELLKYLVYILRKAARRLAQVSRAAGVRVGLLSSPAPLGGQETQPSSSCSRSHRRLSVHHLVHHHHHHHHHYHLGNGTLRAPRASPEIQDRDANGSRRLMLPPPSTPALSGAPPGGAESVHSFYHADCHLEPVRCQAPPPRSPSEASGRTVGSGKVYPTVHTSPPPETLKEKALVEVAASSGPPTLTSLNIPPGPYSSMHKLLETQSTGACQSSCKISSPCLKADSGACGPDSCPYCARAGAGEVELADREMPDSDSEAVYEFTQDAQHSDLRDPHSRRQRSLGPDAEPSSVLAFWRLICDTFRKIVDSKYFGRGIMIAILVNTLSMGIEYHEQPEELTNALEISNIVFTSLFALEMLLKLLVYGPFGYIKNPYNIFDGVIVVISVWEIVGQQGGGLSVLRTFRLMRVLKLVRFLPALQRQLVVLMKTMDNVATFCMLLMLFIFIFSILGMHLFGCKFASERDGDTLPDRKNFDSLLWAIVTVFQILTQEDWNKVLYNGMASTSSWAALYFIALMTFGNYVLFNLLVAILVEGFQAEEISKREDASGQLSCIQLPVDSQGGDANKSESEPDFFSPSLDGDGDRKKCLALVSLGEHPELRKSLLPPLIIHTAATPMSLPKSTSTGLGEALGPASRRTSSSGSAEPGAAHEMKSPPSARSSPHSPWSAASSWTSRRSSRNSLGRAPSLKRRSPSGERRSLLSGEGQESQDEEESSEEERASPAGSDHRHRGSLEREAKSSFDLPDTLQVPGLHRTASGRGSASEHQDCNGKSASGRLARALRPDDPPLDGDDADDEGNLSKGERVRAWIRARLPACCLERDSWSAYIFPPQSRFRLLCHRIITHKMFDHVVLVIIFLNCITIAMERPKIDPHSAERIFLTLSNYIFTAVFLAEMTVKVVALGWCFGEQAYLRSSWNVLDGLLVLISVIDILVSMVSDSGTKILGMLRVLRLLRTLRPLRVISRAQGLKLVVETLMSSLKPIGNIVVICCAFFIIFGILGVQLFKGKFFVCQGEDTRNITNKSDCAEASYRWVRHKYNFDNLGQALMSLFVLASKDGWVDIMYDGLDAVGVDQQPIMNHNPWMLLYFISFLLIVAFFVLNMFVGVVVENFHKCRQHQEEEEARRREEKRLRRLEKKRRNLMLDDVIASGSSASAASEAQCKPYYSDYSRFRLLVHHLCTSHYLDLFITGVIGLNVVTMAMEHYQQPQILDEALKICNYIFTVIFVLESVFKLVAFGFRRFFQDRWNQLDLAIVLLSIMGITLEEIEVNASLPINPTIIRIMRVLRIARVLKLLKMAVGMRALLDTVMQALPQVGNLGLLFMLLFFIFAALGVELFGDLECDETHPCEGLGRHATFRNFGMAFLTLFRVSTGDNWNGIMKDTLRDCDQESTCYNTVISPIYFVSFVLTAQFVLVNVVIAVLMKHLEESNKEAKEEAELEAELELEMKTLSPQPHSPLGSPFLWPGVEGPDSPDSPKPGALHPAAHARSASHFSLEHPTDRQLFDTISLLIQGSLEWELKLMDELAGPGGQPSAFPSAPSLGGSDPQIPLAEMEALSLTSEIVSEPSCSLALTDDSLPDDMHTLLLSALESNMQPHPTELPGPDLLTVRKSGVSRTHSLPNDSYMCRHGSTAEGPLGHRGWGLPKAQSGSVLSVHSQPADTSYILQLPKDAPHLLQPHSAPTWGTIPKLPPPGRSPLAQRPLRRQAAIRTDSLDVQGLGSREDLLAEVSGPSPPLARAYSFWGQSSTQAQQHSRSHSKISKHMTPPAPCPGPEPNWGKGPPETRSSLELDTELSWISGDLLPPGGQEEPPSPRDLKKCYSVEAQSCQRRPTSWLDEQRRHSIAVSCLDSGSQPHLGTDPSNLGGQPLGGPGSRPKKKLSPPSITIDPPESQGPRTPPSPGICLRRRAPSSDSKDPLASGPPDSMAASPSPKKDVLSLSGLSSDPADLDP
Description: as §1

[4] = target: Human Cav 2.2 channels (Homo sapiens, UniProt Q00975); assay: Fluorescent assay for CaV2.2 channels using potassium depolarization (VIPR/FLIPR); conditions: FLIPR data; for CAv2.2 IC50 Ratio closed/inact.: ratio closed/inactivated IC50
Outline: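 Fluo-4 calcium fluorescence (480/535 nm) was recorded on VIPR or FLIPR after depolarization to 70 mM final potassium. Before this, cells were preincubated 30 min at 25 °C with compound in 4–30 mM potassium, so that state-dependent block could be assessed; the cells were HEK293 coexpressing Cav2.2, α2δ, β and Kir2.3.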

[5] = closed state, read-out: CAv1.2 IC50 Closed
[6] = inactivated state, read-out: CAv1.2 IC50 Inact.
[7] = CAv3.2, closed state, read-out: CAv3.2 IC50 Closed
[8] = CAv3.2, inactivated state, read-out: CAv3.2 IC50 Inact.
[9] = closed state, read-out: CAv2.2 IC50 Closed
[10] = inactivated state, read-out: CAv2.2 IC50 Inact.

| Structure (SMILES) | IC50 [1, 5] [µM] | IC50 [1, 6] [µM] | CAv1.2 IC50 Ratio closed/inact. [1] | IC50 [2, 7] [µM] | IC50 [2, 8] [µM] | CAv3.2 IC50 Ratio closed/inact. [2] | IC50 [3] [µM] | IC50 [4, 9] [µM] | IC50 [4, 10] [µM] | CAv2.2 IC50 Ratio closed/inact. [4] |
| --- | --- | --- | --- | --- | --- | --- | --- | --- | --- | --- |
| CC(C)([C@H]1C[C@@H](NS(=O)(=O)c2ccc(F)c(Cl)c2)C1)S(=O)(=O)c1cccc(C(F)(F)F)c1 [Compound 625] | ≥ 10 | 6.39 | 1.6 | 3.71 | 3.1 | 1.2 | 3.74 | 10 | 1.09 | 9.2 |
| CC(C)(C[C@H]1C[C@@H](NC(=O)c2ccc(C(F)(F)F)cc2)C1)S(=O)(=O)c1cccc(C(F)(F)F)c1 [Compound 732] | 2.89 | 0.62 | 4.7 | 0.57 | 0.76 | 0.8 | 3.81 | 0.92 | 0.06 | 15.3 |
| CC(C)([C@H]1C[C@@H](CNC(=O)c2ncc(C(F)(F)F)cn2)C1)S(=O)(=O)c1cccc(C(F)(F)F)c1 [Compound 684] | ≥ 10 | 5.35 | 1.9 | 4.67 | – | – | 4.65 | 8.03 | 0.65 | 12.4 |
| CC(C)([C@H]1C[C@H](NS(=O)(=O)c2ccc(F)c(C(F)(F)F)c2)C1)S(=O)(=O)c1cc(F)cc(C(F)(F)F)c1 [Compound 608] | 7.75 | 2.45 | 3.2 | ≥ 10 | 2.58 | 3.9 | 4.92 | 4.03 | 1.1 | 3.7 |
| CC(C)([C@H]1C[C@@H](NS(=O)(=O)c2ccc(F)c(C(F)(F)F)c2)C1)S(=O)(=O)c1cc(F)cc(C(F)(F)F)c1 [Compound 601] | 8.84 | 2.86 | 3.1 | ≥ 10 | 4.97 | 2 | 3.82 | 7.07 | 0.9 | 7.9 |
| CC(C)(C1CC(CNC(=O)c2ccc(Cl)c(OC(F)(F)F)c2)C1)S(=O)(=O)c1cccc(C(F)(F)F)c1 (stereo not drawn) [Compound 621] | 3.39 | 0.24 | 14.1 | 1.53 | 0.2 | 7.7 | 1.47 | 1.83 | 0.15 | 12.2 |
| CC(C)(C1CC(CNC(=O)c2ccnc(C(F)(F)F)c2)C1)S(=O)(=O)c1cccc(C(F)(F)F)c1 (stereo not drawn) [Compound 620] | 9.99 | 0.67 | 14.9 | 5.52 | 1.39 | 4 | 8.71 | 2.87 | 0.39 | 7.4 |
| CC(C)([C@H]1C[C@@H](NS(=O)(=O)c2ccc(OC(F)(F)F)cc2)C1)S(=O)(=O)c1cc(F)cc(C(F)(F)F)c1 [Compound 603] | 6.92 | 2.12 | 3.3 | ≥ 10 | 6.46 | 1.5 | 5.48 | 4.17 | 0.61 | 6.8 |
| CC(C)([C@H]1C[C@@H](NS(=O)(=O)c2ccc(C(F)(F)F)nc2)C1)S(=O)(=O)c1cccc(C(F)(F)F)c1 [Compound 629] | ≥ 10 | 4.66 | 2.1 | 3.41 | 3.38 | 1 | 2.97 | 7.45 | 0.43 | 17.3 |
| CC(C)S(=O)(=O)c1cc(C(F)(F)F)cnc1C(=O)N[C@H]1C[C@@H](C(C)(C)S(=O)(=O)c2cccc(OC(F)(F)F)c2)C1 [Compound 645] | ≥ 10 | 6.8 | 1.5 | 9.97 | 6.08 | 1.6 | 4.69 | 8.49 | 0.24 | 35.4 |
| CC(C)([C@H]1C[C@H](NC(=O)c2ccc(Cl)c(F)c2)C1)S(=O)(=O)c1cccc(OC(F)(F)F)c1 [Compound 633] | 5.74 | 1.18 | 4.9 | 0.63 | 0.57 | 1.1 | 2.3 | 2.06 | 0.19 | 10.8 |
| O=C(NC[C@H]1C[C@H](S(=O)(=O)c2cccc(OC(F)(F)F)c2)C1)c1ccc(OCC(F)(F)F)nc1 [Compound 698] | 5.6 | 2.48 | 2.3 | 3.02 | – | 1.1 | 3.02 | 2.7 | – | 5.7 |
| CC(C)([C@H]1C[C@@H](CNC(=O)c2ccc(OCC(F)(F)F)nc2)C1)S(=O)(=O)c1cccc(C(F)(F)F)c1 [Compound 686] | 4.42 | 1.1 | 4 | 1.2 | – | – | 1.17 | 2.47 | 0.26 | 9.5 |
| CC(C)S(=O)(=O)c1cc(C(F)(F)F)cnc1C(=O)N[C@H]1C[C@H](CC(C)(C)S(=O)(=O)c2cccc(C(F)(F)F)c2)C1 [Compound 716] | 7.76 | 6.54 | 1.2 | ≥ 10 | 6.84 | 1.5 | ≥ 10 | 6.04 | 0.22 | 27.5 |
| CC(C)([C@H]1C[C@@H](CNC(=O)c2ccnc(C(F)(F)F)n2)C1)S(=O)(=O)c1cccc(C(F)(F)F)c1 [Compound 683] | ≥ 10 | 6.11 | 1.6 | 5.45 | – | – | 5.53 | 2.77 | 0.26 | 10.7 |
| CC(C)([C@H]1C[C@H](NC(=O)c2ccc(C(F)(F)F)cn2)C1)S(=O)(=O)c1cccc(C(F)(F)F)c1 [Compound 676] | 7.96 | 3.25 | 2.4 | 4.27 | 3.79 | 1.1 | 3.87 | 1.85 | 0.16 | 11.6 |
| CC(C)S(=O)(=O)c1cc(C(F)(F)F)cnc1C(=O)N[C@H]1C[C@H](C(C)(C)S(=O)(=O)c2cc(F)cc(C(F)(F)F)c2)C1 [Compound 593] | ≥ 10 | 7.86 | 1.3 | ≥ 10 | 10.4 | 1 | ≥ 10 | 10 | 0.16 | 62.5 |
